# From patent EP2265599B1, “CRYSTAL FORM OF PHENYLAMINOPYRIMIDINE DERIVATIVE” (Natco Pharma Limited, priority 2008, dated 2009)
# Experiments:
# Baf3T315I = test: In vivo anti-leukemic activity, blast cell count in blood smears, Baf3T315I implanted nude mice; conditions: Imatinib 10mg/kg, AN019 20mg/kg, AN024 20mg/kg, oral gavage or ip from day 15; up to day 42
# Excerpt: (§1) Blood smears were obtained via the tail vein or via the femoral vein every 6th day and blast cells counted and graphically represented.
# (§2) Abdominal swelling and decrease in activity was monitored daily, blood smear taken via the tail vein or the femoral vein every 6th day and H&E stained as per standard protocols. 42 days after implantation, mice were sacrificed and spleens harvested.
# (§3) Nude mice were intraperitoneally implanted with Baf3 mutant cells (wt, T315I, M351T or E255K). […] Blood was drawn from the femoral vein or tail vein every 6th day and blast cell count determined and graphically represented.
# Baf3M351T = test: In vivo anti-leukemic activity, blast cell count in blood smears, Baf3M351T implanted nude mice; conditions: Imatinib 10mg/kg, AN019 20mg/kg, AN024 20mg/kg, oral gavage or ip from day 15; up to day 42
# Excerpt: as §1, §2, §3
# Baf3E255K = test: In vivo anti-leukemic activity, blast cell count in blood smears, Baf3E255K implanted nude mice; conditions: Imatinib 10mg/kg, AN019 20mg/kg, AN024 20mg/kg, oral gavage or ip from day 15; up to day 42
# Excerpt: as §1, §2, §3
# [1] = tested on: K562 luc human leukemia cells; test: Drug effectiveness (De) from in vivo luciferase studies; parameters: species or system nude mice
# Excerpt: [formula] Where: • Σalive = total number of mice alive per concentration at the end of experiment times photon count, Eluc = total number of mice alive showing luciferase expression per concentration at end of experiment and c represents control untreated animals times photon count and ∑c-initial represents the initial number of animals in control at start of experiment times photon count.
# K5621uc cells = test: Drug temporal penetrance (Tp) after stopping drug treatment; assay type: in vivo, nude mice; conditions: AN019 20mg/kg, AN024 20mg/kg, Imatinib 10mg/kg, daily ip from day 15, stopped on day 35, imaged till day 45
# Procedure: The temporal penetrance was calculated applying the following equation, Tp=. (((P)/(n))a -((P)/(n))ter)/(((P)/(n))a -((P)/(n))b) [formula]
# Where: • P=photon counts at day 'a', day 'ter', or day 'b' where 'a' is the day when drug treatment was stopped and 'ter' is the day when the experiment was terminated and 'b' is the day where P is minimum after day a but before day 'ter'. • n=number of animals alive when P was measured.
# The animals were imaged at 6 day intervals post transplantation. […] Drug treatment was stopped on day 35 and animals were imaged till day 45, and calculated as described in methods.
# ZR-71 = test: Matrigel invasion assay (modified Boyden chamber), ZR-71; assay type: cell-based; conditions: cells treated 48 h
# Procedure: (§4) The in vitro invasiveness of 4910, 5310 and U87 glioma cells and MDAMB231 and ZR71 breast cancer cells in the presence of specified concentrations of compounds were assessed using a modified Boyden chamber assay. Cells were treated with these compounds for 48 h. 1x10^6 cells were suspended in 600µl of serum-free medium supplemented with 0.2% BSA and placed in the upper compartment of the transwell chambers (Coming Costar Fischer Scientific Cat #07-200-158, Pittsburgh PA) coated with Matrigel (0.7 mg/ml). The lower compartment of the chamber was filled with 200 µl of serum medium and the cells were allowed to migrate for 24 h. After incubation, the cells were fixed and stained with Hema-3 and quantified as previously described (Mohanam et al. 1993). The migrated cells were imaged microscopically to determine the reduction in invasiveness induced by the compounds of this invention.
# (§5) The in vitro invasiveness of 4910, 5310 and U87 glioma cells and MDAMB231 and ZR71 breast cancer cells in the presence of specified concentrations of compounds were assessed using a modified Boyden chamber assay. Cells were treated with these compounds for 48 h.
# MDA-MB-231 = test: Matrigel invasion assay (modified Boyden chamber), MDA-MB-231; assay type: cell-based; conditions: cells treated 48 h
# Procedure: as §4, §5
# U87 = test: Matrigel invasion assay (modified Boyden chamber), U87; assay type: cell-based; conditions: cells treated 48 h
# Procedure: as §4, §5
# ZR-71 cells = test: In vitro angiogenic assay (conditioned media on human dermal endothelial cells), ZR-71; assay type: cell-based
# Procedure: (§6) The in vitro angiogenesis of 4910, 5310 and U87 glioma cells and MDAMB231 and ZR71 breast cancer cells in the presence of specified concentrations of compounds were determined as follows, cells (2x10^4/well) were seeded in 8-well chamber slides and were treated with various concentrations of test compounds. After a 24 h incubation period, the conditioned media was removed and added to a 4x 10^4 human dermal endothelial cell (monolayer in 8-well chamber slides) and the human dermal endothelial cells were allowed to grow for 72 h. Cells were then fixed in 3.7% formaldehyde and stained with H&E and photographed.
# MDA-MB-231 cells = test: In vitro angiogenic assay (conditioned media on human dermal endothelial cells), MDA-MB-231; assay type: cell-based; conditions: control condition and after radiation
# Procedure: as §6
# [2] = tested on: Glioma xenograft cells 4910; test: In vitro angiogenic assay (conditioned media on human dermal endothelial cells), 4910; assay type: cell-based; conditions: 4910 cells, with and without radiation
# Procedure: as §6
# 5310 cells [3] = test: In vitro angiogenic assay (conditioned media on human dermal endothelial cells), 5310; assay type: cell-based; conditions: control conditions and after radiation
# Procedure: as §6
# 5310 cells [4] = test: Western blot analysis for AKT, ERK and Pi3k, 5310; assay type: cell-based
# Procedure: (§7) Western blot analysis of 4910, 5310 and U87 glioma cells and MDAMB231 and ZR71 breast cancer cells in the presence of specified concentrations of compounds were assessed as per standard protocols. Cells were treated with AN019, AN024 or Temozolomide at the specified concentrations. 24h after treatment, cells were collected and cell lysates extracted. Equal quantities of proteins were fractionated by SDS-PAGE. The fractionated proteins were blotted on to nylon membranes and immunoprobed for AKT, ERK and Pi3k. Breast cancer cell protein isolates were additionally immunoprobed for EGFR, ErbB1, ErbB2 and ErbB3.
# ZR71 = test: Western blot analysis for AKT, ERK and Pi3k, ZR71; assay type: cell-based
# Procedure: as §7
# [5] = tested on: 4910, 5310 and U87 glioma cells and MDAMB231 and ZR71 breast cancer cells; test: Western blot analysis for pAKT and pERK (cell line not specified); assay type: cell-based; conditions: with and without radiation
# Procedure: as §7
# [6] = tested on: K562 luciferase expressing cells; test: Leukemic survival study, K562 luciferase expressing cells implanted intraperitoneally; assay type: in vivo, nude mice
# K562 cells = test: Anti-CML activity in nude mice implanted with K562 cells (leukemia growth index, LGI)
compound,measurement,setting,value
"Cc1ccc(NC(=O)c2cc(C(F)(F)F)cc(C(F)(F)F)c2)cc1Nc1nccc(-c2cccnc2)n1 [AN019, (3,5-bis trifluoromethyl)-N-[4-methyl-3-(4-pyridin-3yl-pyrimidin-2ylamino)-phenyl]-benzamide]",blast cell count in blood smears,Baf3T315I,significant decrease in blast cell count
same,blast cell count in blood smears,Baf3M351T,significant decrease in blast cell count
same,blast cell count in blood smears,Baf3E255K,significant decrease in blast cell count
same,De (drug effectiveness),[1]; 5mg/kg,25.82%
same,De (drug effectiveness),[1]; 10mg/kg,78.20%
same,De (drug effectiveness),[1]; 20mg/kg,83.40%
same,De (drug effectiveness),[1]; 40mg/kg,85.20%
same,Tp (temporal penetrance),K5621uc cells,2.0
same,+Radiation % Invasion,"ZR-71; ZR-71, with radiation",19%
same,-Radiation % Invasion,"ZR-71; ZR-71, without radiation",33%
same,+Radiation % Invasion,"MDA-MB-231; MDA-MB-231, with radiation",15%
same,-Radiation % Invasion,"MDA-MB-231; MDA-MB-231, without radiation",45%
same,+Radiation % Invasion,"U87; U87, with radiation",18%
same,-Radiation % Invasion,"U87; U87, without radiation",18%
same,inhibition of angiogenesis,ZR-71 cells,complete inhibition of angiogenesis
same,inhibition of angiogenesis,MDA-MB-231 cells,a slight inhibition was observed in both control and radiation treatments
same,inhibition of angiogenesis,[2],inhibition of angiogenesis similar to MDA-MB-231 cells with an increase in angiogenic inhibition after radiation
same,inhibition of angiogenesis,5310 cells [3],inhibition of angiogenesis was greater in control conditions than after radiation treatment
same,AKT expression levels,5310 cells [4],decrease in AKT expression levels
same,Levels of PI3k,5310 cells [4]; without and after radiation,almost undetectable in AN019 treated cells without radiation but reappeared after radiation treatment
same,PI3k levels,"ZR71; ZR71 (cell line by context), with and without radiation",absent in AN019 treatments both with and without radiation
same,AKT levels,"ZR71; ZR71, unirradiated and after radiation","decrease in AKT levels, which was enhanced after radiation"
same,levels of pERK,[5],reduced significantly
same,curative effect after withdrawal of drug treatment (animals cured at day 58),"[6]; drug treatment stopped at day 42, based on luminescence (Fig. 20)",continued to show curative effect
same,Blast cell count from blood smears after withdrawal of drug treatment,[6]; drug treatment withdrawn on day 42 (Fig. 21),showed effectiveness after withdrawal of drug treatment
same,mortality,"[6]; treatment from day 15 till day 42, then withdrawn, AN024 death determined to be other than leukemia",did not show any mortality
same,animals showing no signs of leukemia / complete absence of leukemic symptoms,"[6]; treatment from day 15 till day 42, then withdrawn, AN024 on day 55",7 of the 10 animals
same,"physiological, phenotypic or behavioral abnormality","K562 cells; K562 implanted nude mice, ip 10mg/kg","no abnormal physiological, phenotypic or behavioral abnormality"
same,LGI after initiation of drug treatment (time course),"K562 cells; daily ip injections of 10mg/kg from day 15, blood drawn every 6th day",steady decline in LGI
